This experiment deals with T1, Glucocorticoid receptor (Homo sapiens, UniProt P04150).
T1 sequence (P04150 whole entry): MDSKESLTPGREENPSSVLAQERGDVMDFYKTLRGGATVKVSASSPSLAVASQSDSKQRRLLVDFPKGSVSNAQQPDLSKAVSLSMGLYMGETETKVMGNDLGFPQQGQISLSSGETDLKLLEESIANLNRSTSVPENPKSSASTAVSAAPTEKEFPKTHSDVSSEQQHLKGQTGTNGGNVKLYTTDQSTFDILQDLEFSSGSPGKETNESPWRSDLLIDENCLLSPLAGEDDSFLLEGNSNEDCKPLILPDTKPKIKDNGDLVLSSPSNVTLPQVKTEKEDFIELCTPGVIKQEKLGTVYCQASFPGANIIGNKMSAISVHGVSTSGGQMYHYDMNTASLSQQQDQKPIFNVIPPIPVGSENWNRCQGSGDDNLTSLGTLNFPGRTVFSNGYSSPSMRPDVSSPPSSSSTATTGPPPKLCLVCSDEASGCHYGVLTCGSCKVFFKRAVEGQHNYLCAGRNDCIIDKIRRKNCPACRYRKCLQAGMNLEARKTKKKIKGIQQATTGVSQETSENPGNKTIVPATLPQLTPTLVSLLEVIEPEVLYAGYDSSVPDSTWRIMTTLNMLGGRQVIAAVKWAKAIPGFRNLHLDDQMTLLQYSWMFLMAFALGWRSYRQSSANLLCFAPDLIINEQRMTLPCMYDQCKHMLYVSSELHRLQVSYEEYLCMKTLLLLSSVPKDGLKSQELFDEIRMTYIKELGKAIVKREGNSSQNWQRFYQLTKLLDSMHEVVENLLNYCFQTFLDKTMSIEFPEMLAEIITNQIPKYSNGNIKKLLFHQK
Nature of the experiment: GR-Mediated Antagonist Activity Assay and IL-6 Repression Assay. Conditions: pH 7.5. As to the method: Potencies of compounds are reported as the concentration at which they reach half their antagonist (IC50) activity. IL-6 Repression Assay- The GR-mediated repression of IL-6 production in a human fibroblast (NHDFneo) cell line is measured with a modified ELISA assay.

Molecules are shown by their SMILES.

The EC50 is the concentration that produces a half-maximal response. Read a high EC50 as weaker potency. For orientation: IC50 means the concentration at which inhibition is half-maximal. A high value points to weaker potency. As to `COc1c(O)ccc2c1-c1ccc3c(c1/C(=C/c1sccc1[C@@H](O)C(F)(F)F)O2)C(C)=CC(C)(C)N3` [(18Z)-12-methoxy-3,5,5-trimethyl-18-({3-[(1R)-2,2,2-trifluoro-1-hydroxyethyl]thiophen-2-yl}methylidene)-17-oxa-6-azatetracyclo[8.8.0.0^{2,7}.0^{11,16}]octadeca-1(10),2(7),3,8,11,13,15-heptaen-13-ol], the midpoint of the response, the EC50, lay at 1.4 nM and the IC50 came out at 0.6 nM. Molecule `CCCCC(O)c1ccsc1/C=C1\Oc2ccc(O)c(OC)c2-c2ccc3c(c21)C(C)=CC(C)(C)N3` (stereo unspecified) [(18Z)-18-{[3-(1-hydroxypentyl)thiophen-2-yl]methylidene}-12-methoxy-3,5,5-trimethyl-17-oxa-6-azatetracyclo[8.8.0.0^{2,7}.0^{11,16}]octadeca-1(10),2(7),3,8,11,13,15-heptaen-13-ol] displayed a 50% inhibitory concentration (IC50) of 0.9 nM. In other words, the sub-nanomolar range. Turning to `COc1c(O)ccc2c1-c1ccc3c(c1C(=Cc1sccc1C(=O)C1CCCCC1)O2)C(C)=CC(C)(C)N3` [(18Z)-18-[(3-cyclohexanecarbonylthiophen-2-yl)methylidene]-12-methoxy-3,5,5-trimethyl-17-oxa-6-azatetracyclo[8.8.0.0^{2,7}.0^{11,16}]octadeca-1(10),2(7),3,8,11,13,15-heptaen-13-ol], the IC50 was 1 nM. For `COc1c(O)ccc2c1-c1ccc3c(c1/C(=C/c1sccc1[C@H](O)C(F)(F)F)O2)C(C)=CC(C)(C)N3` [(18Z)-12-methoxy-3,5,5-trimethyl-18-({3-[(1S)-2,2,2-trifluoro-1-hydroxyethyl]thiophen-2-yl}methylidene)-17-oxa-6-azatetracyclo[8.8.0.0^{2,7}.0^{11,16}]octadeca-1(10),2(7),3,8,11,13,15-heptaen-13-ol], it took 0.2 nM to reach a half-maximal effect (EC50) and the IC50 was found to be 0.2 nM.

Values taken from BindingDB's records for doi:10.1021/jm070370z (Ligand Pharmaceuticals, 2007).
